Assays:
Assay in all cases: relative viability (nuclei count vs DMSO), 5 days (fraction); higher = more cells survive
[1] = system: 201T
How it was run: (§1)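 Each reported value is a median over duplicate plates. It expresses relative viability: treated-well nuclei count divided by vehicle-well nuclei count. Lung cancer cell lines in 1536-well plates were dosed by pin tool a day after seeding, alone with one drug or with a fixed anchor-drug dose plus five library-drug doses (not always all listed) in √10 steps, and nuclei were counted after 5 days.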

[2] = system: BEN
How it was run: as §1

[3] = system: EPLC-272H
How it was run: as §1

[4] = system: HCC-15
How it was run: as §1

[5] = system: HCC-78
How it was run: as §1

[6] = system: LCLC-97TM1
How it was run: as §1

[7] = system: LU99A
How it was run: as §1

[8] = system: NCI-H1355
How it was run: as §1

[9] = system: NCI-H1395
How it was run: as §1

[10] = system: NCI-H2009
How it was run: as §1

[11] = system: NCI-H2085
How it was run: as §1

[12] = system: NCI-H2126
How it was run: as §1

[13] = system: NCI-H2228
How it was run: as §1

[14] = system: NCI-H2342
How it was run: as §1

[15] = system: NCI-H23
How it was run: as §1

[16] = system: NCI-H2405
How it was run: as §1

[17] = system: NCI-H322M
How it was run: as §1

[18] = system: NCI-H460
How it was run: as §1

[19] = system: NCI-H647
How it was run: as §1

[20] = system: NCI-H650
How it was run: as §1

[21] = system: NCI-H661
How it was run: as §1

[22] = system: NCI-H838
How it was run: as §1

[23] = system: PC-14
How it was run: as §1

`Cc1csc(=NC2CCCCC2)n1/N=C/c1ccc(O)c(O)c1O` [MIM1] + CC(=O)Nc1cccc(-n2c(=O)n(C3CC3)c(=O)c3c(Nc4ccc(I)cc4F)n(C)c(=O)c(C)c32)c1 [Trametinib] (partner 0.02 µM) was tested, and the relative viability ([1]; first compound 0.2 µM) was 0.704, the relative viability ([1]; first compound 0.6325 µM) was 0.701 and the relative viability ([1]; first compound 2 µM) was 0.736. For the same compound, the relative viability ([1]; first compound 6.325 µM) was 0.605, the relative viability ([1]; first compound 20 µM) was 0.761 and the relative viability ([2]; first compound 0.2 µM) was 1.22. It also gave a relative viability ([2]; first compound 0.6325 µM) of 1.1, a relative viability ([2]; first compound 2 µM) of 1.03 and a relative viability ([2]; first compound 6.325 µM) of 1.1. The relative viability ([2]; first compound 20 µM) was 0.578, the relative viability ([3]; first compound 0.2 µM) was 0.322 and the relative viability ([3]; first compound 0.6325 µM) was 0.279. It also gave a relative viability ([3]; first compound 2 µM) of 0.273, a relative viability ([3]; first compound 6.325 µM) of 0.24 and a relative viability ([3]; first compound 20 µM) of 0.16. For the same compound, the relative viability ([4]; first compound 0.2 µM) was 0.363, the relative viability ([4]; first compound 2 µM) was 0.372 and the relative viability ([4]; first compound 6.325 µM) was 0.377. The relative viability ([4]; first compound 20 µM) was 0.133, the relative viability ([5]; first compound 0.2 µM) was 0.75 and the relative viability ([5]; first compound 2 µM) was 0.778. It also gave a relative viability ([5]; first compound 6.325 µM) of 0.556, a relative viability ([5]; first compound 20 µM) of 1.15 and a relative viability ([6]; first compound 0.2 µM) of 0.207. The relative viability ([6]; first compound 0.6325 µM) was 0.218, the relative viability ([6]; first compound 2 µM) was 0.217 and the relative viability ([6]; first compound 6.325 µM) was 0.196. It also gave a relative viability ([6]; first compound 20 µM) of 0.0682, a relative viability ([7]; first compound 0.2 µM) of 0.571 and a relative viability ([7]; first compound 0.6325 µM) of 0.611. For the same compound, the relative viability ([7]; first compound 2 µM) was 0.604, the relative viability ([7]; first compound 6.325 µM) was 0.469 and the relative viability ([7]; first compound 20 µM) was 0.164. The relative viability ([8]; first compound 0.2 µM) was 0.419, the relative viability ([8]; first compound 0.6325 µM) was 0.436 and the relative viability ([8]; first compound 2 µM) was 0.457. The relative viability ([8]; first compound 6.325 µM) was 0.384, the relative viability ([8]; first compound 20 µM) was 0.375 and the relative viability ([9]; first compound 0.2 µM) was 0.976. It also gave a relative viability ([9]; first compound 0.6325 µM) of 1.04, a relative viability ([9]; first compound 2 µM) of 0.937 and a relative viability ([9]; first compound 6.325 µM) of 0.812. For the same compound, the relative viability ([9]; first compound 20 µM) was 0.54, the relative viability ([10]; first compound 0.2 µM) was 0.257 and the relative viability ([10]; first compound 0.6325 µM) was 0.261. It also gave a relative viability ([10]; first compound 2 µM) of 0.27, a relative viability ([10]; first compound 6.325 µM) of 0.208 and a relative viability ([10]; first compound 20 µM) of 0.329. It also gave a relative viability ([11]; first compound 0.2 µM) of 0.619, a relative viability ([11]; first compound 0.6325 µM) of 0.512 and a relative viability ([11]; first compound 2 µM) of 0.62. For the same compound, the relative viability ([11]; first compound 6.325 µM) was 0.436, the relative viability ([11]; first compound 20 µM) was 0.406 and the relative viability ([12]; first compound 0.2 µM) was 0.553. For the same compound, the relative viability ([12]; first compound 0.6325 µM) was 0.579, the relative viability ([12]; first compound 2 µM) was 0.598 and the relative viability ([12]; first compound 6.325 µM) was 0.503. It also gave a relative viability ([12]; first compound 20 µM) of 0.388, a relative viability ([13]; first compound 0.2 µM) of 0.54 and a relative viability ([13]; first compound 0.6325 µM) of 0.642. For the same compound, the relative viability ([13]; first compound 2 µM) was 0.506, the relative viability ([13]; first compound 6.325 µM) was 0.307 and the relative viability ([13]; first compound 20 µM) was 0.13. For the same compound, the relative viability ([14]; first compound 0.2 µM) was 0.842, the relative viability ([14]; first compound 0.6325 µM) was 0.903 and the relative viability ([14]; first compound 2 µM) was 0.787. For the same compound, the relative viability ([14]; first compound 6.325 µM) was 0.716, the relative viability ([14]; first compound 20 µM) was 1.1 and the relative viability ([15]; first compound 0.2 µM) was 0.407. The relative viability ([15]; first compound 0.6325 µM) was 0.342, the relative viability ([15]; first compound 2 µM) was 0.326 and the relative viability ([15]; first compound 6.325 µM) was 0.312. The relative viability ([15]; first compound 20 µM) was 0.163, the relative viability ([16]; first compound 0.2 µM) was 0.586 and the relative viability ([16]; first compound 0.6325 µM) was 0.75. It also gave a relative viability ([16]; first compound 2 µM) of 0.656, a relative viability ([16]; first compound 6.325 µM) of 0.603 and a relative viability ([16]; first compound 20 µM) of 0.685. For the same compound, the relative viability ([17]; first compound 0.2 µM) was 0.508, the relative viability ([17]; first compound 0.6325 µM) was 0.596 and the relative viability ([17]; first compound 2 µM) was 0.456. The relative viability ([17]; first compound 6.325 µM) was 0.526, the relative viability ([17]; first compound 20 µM) was 0.577 and the relative viability ([18]; first compound 0.2 µM) was 0.103. For the same compound, the relative viability ([18]; first compound 0.6325 µM) was 0.136, the relative viability ([18]; first compound 2 µM) was 0.118 and the relative viability ([18]; first compound 6.325 µM) was 0.0462. The relative viability ([18]; first compound 20 µM) was 0.0293, the relative viability ([19]; first compound 0.2 µM) was 0.435 and the relative viability ([19]; first compound 0.6325 µM) was 0.567. The relative viability ([19]; first compound 2 µM) was 0.415, the relative viability ([19]; first compound 6.325 µM) was 0.413 and the relative viability ([19]; first compound 20 µM) was 0.18. The relative viability ([20]; first compound 0.2 µM) was 1.02, the relative viability ([20]; first compound 0.6325 µM) was 0.946 and the relative viability ([20]; first compound 2 µM) was 1.07. The relative viability ([20]; first compound 6.325 µM) was 0.939, the relative viability ([20]; first compound 20 µM) was 0.647 and the relative viability ([21]; first compound 0.2 µM) was 0.607. The relative viability ([21]; first compound 0.6325 µM) was 0.587, the relative viability ([21]; first compound 2 µM) was 0.554 and the relative viability ([21]; first compound 6.325 µM) was 0.406. The relative viability ([21]; first compound 20 µM) was 0.348, the relative viability ([22]; first compound 0.2 µM) was 0.463 and the relative viability ([22]; first compound 0.6325 µM) was 0.572. For the same compound, the relative viability ([22]; first compound 2 µM) was 0.544, the relative viability ([22]; first compound 6.325 µM) was 0.353 and the relative viability ([22]; first compound 20 µM) was 0.178. The relative viability ([23]; first compound 0.2 µM) was 0.663, the relative viability ([23]; first compound 0.6325 µM) was 0.882 and the relative viability ([23]; first compound 2 µM) was 0.479. The relative viability ([23]; first compound 6.325 µM) was 0.621 and the relative viability ([23]; first compound 20 µM) was 0.17.
